A short description of the data set: Storage stability of amorphous Upadacitinib. It is filed as physicochemical.

`CC[C@@H]1CN(C(=O)NCC(F)(F)F)C[C@@H]1c1cnc2cnc3[nH]ccc3n12` [Amorphous form of Upadacitinib, (3S,4R)-3-ethyl-4-(3H-imidazo[1,2-a]pyrrolo[2,3-e]pyrazin-8-yl)-N-(2,2,2-trifluoroethyl)pyrrolidine-1-carboxamide]: the stability on storage result is, setting by setting: (12 months at 25° C./60+5% relative humidity) “stable”; (12 months at 40±2° C./75±5% relative humidity) “stable”.

These data come from patent US20250074912A1, “IMPROVED PROCESS FOR THE PREPARATION OF UPADACITINIB” (MSN LABORATORIES PRIVATE LIMITED, R&D CENTER, priority 2022, published 2025).
